From patent US7728012B2, “Carboxamide compounds and their use as calpain inhibitors” (Abbott GmbH & Co. KG, priority 2006, dated 2010)

What was measured:
Format in all cases: biochemical
[1] = target: T1, calpain-I isolated from human erythrocytes (Homo sapiens, UniProt P07384); test: Calpain I kinetic fluorescence enzyme inhibition assay; details: apparent Ki from IC50 by Cheng-Prussoff; average of 2 to 4 dose-effect plots
T1 construct: calpain-I—isolated from human erythrocytes; purchased Calbiochem 208713; host or cells: human erythrocytes (tissue isolate)
T1 sequence (P07384 1-714): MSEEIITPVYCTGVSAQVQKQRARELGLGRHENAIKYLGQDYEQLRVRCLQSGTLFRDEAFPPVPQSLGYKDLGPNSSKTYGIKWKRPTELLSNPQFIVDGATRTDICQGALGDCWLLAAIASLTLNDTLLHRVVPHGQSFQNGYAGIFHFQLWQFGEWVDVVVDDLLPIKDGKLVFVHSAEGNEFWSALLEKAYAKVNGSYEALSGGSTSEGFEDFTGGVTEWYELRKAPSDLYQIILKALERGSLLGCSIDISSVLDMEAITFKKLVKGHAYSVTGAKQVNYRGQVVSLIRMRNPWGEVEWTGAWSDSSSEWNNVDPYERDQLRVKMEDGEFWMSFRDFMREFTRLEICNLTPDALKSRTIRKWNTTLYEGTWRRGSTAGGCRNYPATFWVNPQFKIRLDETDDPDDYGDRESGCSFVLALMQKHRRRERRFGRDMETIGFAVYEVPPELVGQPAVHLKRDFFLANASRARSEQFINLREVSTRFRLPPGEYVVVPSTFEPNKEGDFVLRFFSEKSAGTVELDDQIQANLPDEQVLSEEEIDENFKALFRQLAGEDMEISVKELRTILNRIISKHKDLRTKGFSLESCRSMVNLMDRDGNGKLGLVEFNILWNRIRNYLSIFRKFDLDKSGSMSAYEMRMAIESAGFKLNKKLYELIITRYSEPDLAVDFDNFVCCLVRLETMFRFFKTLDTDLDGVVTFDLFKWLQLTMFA
T1 sequence (P04632 1-268 partner): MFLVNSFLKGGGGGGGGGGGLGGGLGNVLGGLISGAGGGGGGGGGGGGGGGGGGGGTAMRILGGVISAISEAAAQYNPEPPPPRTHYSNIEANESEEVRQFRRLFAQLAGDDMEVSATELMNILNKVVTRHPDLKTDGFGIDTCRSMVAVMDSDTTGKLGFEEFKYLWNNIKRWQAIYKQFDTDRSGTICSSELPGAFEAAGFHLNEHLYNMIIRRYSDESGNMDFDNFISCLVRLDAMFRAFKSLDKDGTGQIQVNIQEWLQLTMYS

[2] = target: T2, cathepsin B isolated from human liver (Homo sapiens, UniProt P07858); test: Cathepsin B kinetic fluorescence enzyme inhibition assay; details: selectivity ratio versus calpain I
T2 construct: cathepsin B—isolated from human liver; purchased Calbiochem 219362; host or cells: human liver (tissue isolate)
Experimental: (§1) The following solutions and buffers were employed: • HBS (for 40 ml): 800 μl M HEPES; 2.16 ml 100 mM KCl; 4.8 ml 1M NaCl; 3.59 ml 5% glucose; 60 μl μM MgSO4; 400 μl 100 mM Na pyruvate, 28.19 ml water; pH 7.2-7.5. • lysis buffer (for 20 ml): 400 μl M Tris pH 8.2; 2.74 ml 1M NaCl; 520 μl 0.5M EDTA; 2 ml 10% triton X-100; 0.8 ml (=1:25) CompletePlus (1 tablet/2 ml H2O); 200 μl 100 mM Pefabloc; 13.34 ml water, pH 8.2. • TBST (10×) (for 1 l): 100 mM Tris (12.1 g); 1.5M NaCl (87 g); 1% Tween 20 (10 g), adjusted to pH 8. I Enzyme Inhibition In Vitro: • Testing for blockade of the corresponding enzymic activities was carried out by means of kinetic fluorescence assays (excitation 390 nm, emission 460 nm). • Apparent Ki values were calculated from the experimentally determined IC50 values by the Cheng-Prussoff relation assuming a reversible competitive enzyme inhibition. The Km values of the substrates used under the assay conditions indicated above were: 90 μM (Z-Phe-Arg-AMC, cathepsin B), 10 μM (Z-Gly-Pro-Arg-AMC, cathepsin K), 2 μM (Z-Phe-Arg-AMC, cathepsin L), and 30 μM (Z-Val-Val-Arg-AMC, cathepsin S). • The indicated Ki values are averages of the inhibition constants calculated on the basis of 2 to 4 independent dose-effect plots.
(§2) The following assays were used: • 1. Calpain I: • 20 nM calpain-I—isolated from human erythrocytes (Calbiochem #208713), 100 μM Suc-Leu-Tyr-AMC (Bachem #1-1355) as substrate in buffer with 62 mM imidazole, 0.3 mM CaCl2, 0.10% CHAPS, 0.05% BSA, 1 mM DTT at pH 7.3 and room temperature. • 2. Cathepsin B: • 0.25 nM cathepsin B—isolated from human liver (Calbiochem #219362), 100 μM Z-Phe-Arg-AMC (Bachem #I-1160) as substrate 50 mM MES, 2 mM EDTA, 0.05% Brij 35, 2.5 mM L-cysteine, pH 6.0, room temperature. • 3. Cathepsin K: • 3 nM cathepsin K—activated from recombinant human procathepsin K from E. coli (Calbiochem #342001), 10 μM Z-Gly-Pro-Arg-AMC (Biomol #P-142) as substrate in 50 mM MES, 2 mM EDTA, 0.05% Brij 35, 2.5 mM L-cysteine, pH 6.0, room temperature. • 4. Cathepsin L: • 1 nM cathepsin L—isolated from human liver (Calbiochem #219402), 2 μM Z-Phe-Arg-AMC (Bachem #1-1160) as substrate in 50 mM MES, 2 mM EDTA, 0.05% Brij 35, 2.5 mM L-cysteine, pH 6.0, room temperature. • 5. Cathepsin S: • 0.5 nM recombinant human cathepsin S from E. coli (Calbiochem #219343), 20 μM Z-Val-Val-Arg-AMC (Bachem #1-1540) as substrate in 50 mM MES, 2 mM EDTA, 0.05% Brij 35, 2.5 mM L-cysteine, pH 6.0, room temperature. • The results of the in vitro determination are indicated in Table 1. The following abbreviations are used in Table 1: • The “Calpain activity” column, ++ stands for a calpain Ki (Ki(calpain)) of ≦40 nM and + means: 40 nM<Ki(Calpain)≦100 nM. • The “Sel. cat. B” column indicates the Ki(cathepsin B)/Ki(calpain) ratio. In this connection, ++ means a Ki(cathepsin B)/Ki(calpain) ratio of ≧30 and + means 10≦Ki(cathepsin B)/Ki(calpain)<30. • The “Sel. cat. K” column indicates the Ki(cathepsin K)/Ki(calpain) ratio. In this connection, ++ means a Ki(cathepsin K)/Ki(calpain) ratio of ≧30 and + means 10≦Ki(cathepsin K)/Ki(calpain)<30. • The “Sel. cat. L” column indicates the Ki(cathepsin L)/Ki(calpain) ratio. In this connection, ++ means a Ki(cathepsin L)/Ki(calpain) ratio of ≧50 and + means 30≦Ki(cathepsin L)/Ki(calpain)<50. • The “Sel. cat. S” column indicates the Ki(cathepsin S)/Ki(calpain) ratio. In this connection, ++ means a Ki(cathepsin S)/Ki(calpain) ratio of ≧100 and + means 50≦Ki(cathepsin S)/Ki(calpain)<100.

[3] = target: T3, cathepsin K activated from recombinant human procathepsin K (Homo sapiens, UniProt P43235); test: Cathepsin K kinetic fluorescence enzyme inhibition assay; details: selectivity ratio versus calpain I
T3 construct: purchased Calbiochem 342001; host or cells: E. coli
T3 sequence (P43235 115-329): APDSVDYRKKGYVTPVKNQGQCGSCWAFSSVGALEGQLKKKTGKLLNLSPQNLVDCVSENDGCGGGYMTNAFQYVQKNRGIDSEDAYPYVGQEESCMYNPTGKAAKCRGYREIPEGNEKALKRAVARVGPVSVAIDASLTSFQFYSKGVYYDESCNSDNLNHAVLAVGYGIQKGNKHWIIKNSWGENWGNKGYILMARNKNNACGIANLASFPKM
Experimental: as §1, §2

[4] = target: T4, cathepsin L isolated from human liver (Homo sapiens, UniProt P07711); test: Cathepsin L kinetic fluorescence enzyme inhibition assay; details: selectivity ratio versus calpain I
T4 construct: cathepsin L—isolated from human liver; purchased Calbiochem 219402; host or cells: human liver (tissue isolate)
T4 sequence (P07711 114-333): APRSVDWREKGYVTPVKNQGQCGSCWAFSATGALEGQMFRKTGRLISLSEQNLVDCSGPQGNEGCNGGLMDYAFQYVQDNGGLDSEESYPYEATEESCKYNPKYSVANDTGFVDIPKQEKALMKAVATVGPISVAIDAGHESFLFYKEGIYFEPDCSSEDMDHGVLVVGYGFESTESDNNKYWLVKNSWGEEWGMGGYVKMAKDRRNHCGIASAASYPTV
How it was run: (§3)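 Kinetic fluorescence (ex 390/em 460 nm) at room temperature in 50 mM MES, 2 mM EDTA, 0.05% Brij 35, 2.5 mM L-cysteine, pH 6.0. Cathepsin B (liver, 0.25 nM) with 100 μM Z-Phe-Arg-AMC; cathepsin L (liver, 1 nM) with 2 μM Z-Phe-Arg-AMC; recombinant E. coli cathepsin S (0.5 nM) with 20 μM Z-Val-Val-Arg-AMC. Ki via Cheng-Prusoff.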

[5] = target: T5, recombinant human cathepsin S (Homo sapiens, UniProt P25774); test: Cathepsin S kinetic fluorescence enzyme inhibition assay; details: selectivity ratio versus calpain I
T5 construct: purchased Calbiochem 219343; host or cells: E. coli
T5 sequence (P25774 115-331): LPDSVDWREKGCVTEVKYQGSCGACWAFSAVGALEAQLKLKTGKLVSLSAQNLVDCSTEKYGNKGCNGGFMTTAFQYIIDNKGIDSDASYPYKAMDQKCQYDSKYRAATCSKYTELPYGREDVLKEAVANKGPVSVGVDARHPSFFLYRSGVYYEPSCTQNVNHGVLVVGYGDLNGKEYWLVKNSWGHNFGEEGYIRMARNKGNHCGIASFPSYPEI
How it was run: as §3

| SMILES | Ki [1] [nM] | Sel cat. K (Ki(cathepsin K)/Ki(calpain) ratio) [3] | Sel cat. B (Ki(cathepsin B)/Ki(calpain) ratio) [2] | Sel cat. L (Ki(cathepsin L)/Ki(calpain) ratio) [4] | Sel cat. S (Ki(cathepsin S)/Ki(calpain) ratio) [5] |
| --- | --- | --- | --- | --- | --- |
| NC(=O)C(=O)C(Cc1ccccc1)NC(=O)c1cc(Cl)cnc1-n1ccc(-c2ccccc2)n1 (centres unmarked) [Example 27, N-(3-Amino-1-benzyl-2,3-dioxopropyl)-5-chloro-2-(3-phenyl-1H-pyrazol-1-yl)nicotinamide] | ≤ 40 | + (10≦Ki(cathepsin K)/Ki(calpain)<30) | ++ (Ki(cathepsin B)/Ki(calpain) ratio of ≧30) | + (30≦Ki(cathepsin L)/Ki(calpain)<50) |  |
| NC(=O)C(=O)C(Cc1ccccc1)NC(=O)c1cc(Cl)cnc1-n1ccc(-c2ccc(N3CCOCC3)cc2)n1 (centres unmarked) [Example 31, N-(3-Amino-1-benzyl-2,3-dioxopropyl)-5-chloro-2-[3-(4-morpholin-4-ylphenyl)-1H-pyrazol-1-yl]nicotinamide] | ≤ 40 | + (10≦Ki(cathepsin K)/Ki(calpain)<30) | ++ (Ki(cathepsin B)/Ki(calpain) ratio of ≧30) | + (30≦Ki(cathepsin L)/Ki(calpain)<50) |  |
| NC(=O)C(=O)C(CC1CCCCC1)NC(=O)c1cccnc1-n1ccc(-c2ccccc2)n1 (centres unmarked) [Example 66, N-[3-Amino-1-(cyclohexylmethyl)-2,3-dioxopropyl]-2-(3-phenyl-1H-pyrazol-1-yl)nicotinamide] | ≤ 40 | + (10≦Ki(cathepsin K)/Ki(calpain)<30) |  | + (30≦Ki(cathepsin L)/Ki(calpain)<50) | ++ (Ki(cathepsin S)/Ki(calpain) ratio of ≧100) |
| NC(=O)C(=O)C(Cc1ccccc1)NC(=O)c1cccnc1-n1ccc(-c2cccc(N3CCCC3)c2)n1 (centres unmarked) [Example 74, N-(3-Amino-1-benzyl-2,3-dioxopropyl)-2-[3-(3-pyrrolidin-1-ylphenyl)-1H-pyrazol-1-yl]nicotinamide] | ≤ 40 | ++ (Ki(cathepsin K)/Ki(calpain) ratio of ≧30) | ++ (Ki(cathepsin B)/Ki(calpain) ratio of ≧30) |  | ++ (Ki(cathepsin S)/Ki(calpain) ratio of ≧100) |
| N#Cc1cnc(-n2ccc(-c3ccccc3)n2)c(C(=O)NC(Cc2ccccc2)C(=O)C(N)=O)c1 (centres unmarked) [Example 82, N-(3-Amino-1-benzyl-2,3-dioxopropyl)-5-cyano-2-(3-phenyl-1H-pyrazol-1-yl)nicotinamide] | 40 to 100 | ++ (Ki(cathepsin K)/Ki(calpain) ratio of ≧30) | ++ (Ki(cathepsin B)/Ki(calpain) ratio of ≧30) | ++ (Ki(cathepsin L)/Ki(calpain) ratio of ≧50) |  |
| COc1ccc(OC)c(-c2ccn(-c3ncccc3C(=O)NC(Cc3ccccc3)C(=O)C(N)=O)n2)c1 (centres unmarked) [Example 151, N-[3-Amino-2,3-dioxo-1-(phenylmethyl)propyl]-2-{3-[2,5-bis(methyloxy)phenyl]-1H-pyrazol-1-yl}pyridine-3-carboxamide] | 40 to 100 | ++ (Ki(cathepsin K)/Ki(calpain) ratio of ≧30) | ++ (Ki(cathepsin B)/Ki(calpain) ratio of ≧30) | ++ (Ki(cathepsin L)/Ki(calpain) ratio of ≧50) |  |

Continued, in another order:

| Ki [1] [nM] | Sel cat. K (Ki(cathepsin K)/Ki(calpain) ratio) [3] | SMILES | Sel cat. B (Ki(cathepsin B)/Ki(calpain) ratio) [2] | Sel cat. L (Ki(cathepsin L)/Ki(calpain) ratio) [4] | Sel cat. S (Ki(cathepsin S)/Ki(calpain) ratio) [5] |
| --- | --- | --- | --- | --- | --- |
| 40 to 100 | + (10≦Ki(cathepsin K)/Ki(calpain)<30) | NC(=O)C(=O)C(Cc1ccccc1)NC(=O)c1cccnc1-n1ccc(-c2ccc3c(c2)CCO3)n1 (centres unmarked) [Example 75, N-(3-Amino-1-benzyl-2,3-dioxopropyl)-2-[3-(2,3-dihydrobenzo[b]furan-5-yl)-1H-pyrazol-1-yl]nicotinamide] |  | ++ (Ki(cathepsin L)/Ki(calpain) ratio of ≧50) | ++ (Ki(cathepsin S)/Ki(calpain) ratio of ≧100) |
| 40 to 100 | + (10≦Ki(cathepsin K)/Ki(calpain)<30) | NC(=O)C(=O)C(Cc1ccccc1)NC(=O)c1cccnc1-n1ccc(C2CCCCC2)n1 (centres unmarked) [Example 192, N-[3-Amino-2,3-dioxo-1-(phenylmethyl)propyl]-2-(3-cyclohexyl-1H-pyrazol-1-yl)pyridine-3-carboxamide] |  | ++ (Ki(cathepsin L)/Ki(calpain) ratio of ≧50) | ++ (Ki(cathepsin S)/Ki(calpain) ratio of ≧100) |
